Data taken from PMC9271792 (Frontiers in Endocrinology, 2022).
Where two headings read alike, the source gives them in different places.

Tests used:
[1] = system: mitogenic signalling; conditions: ref [20], cited from earlier work
[2] = system: IR; conditions: cited from earlier work
Excerpt: This is similar to the poorly mitogenic S597 peptide, which also promoted slowe ...

[3] = system: IGF-1R; conditions: cited from earlier work
[4] = system: IR; conditions: ref [20]; cited from earlier work
[5] = system: IR; conditions: compared to insulin; ref [20], [21]; cited from earlier work
[6] = molecular target: T1, IGF-1R (Homo sapiens, UniProt P08069); assay: Kinase receptor activation assay (KIRA), IGF-1R; format: cell-based; conditions: 10 min stimulation, P6 cells
T1 construct: expressed in transfected cells; host or cells: P6 cells (BALB/c3T3 mouse fibroblasts overexpressing human IGF-1R); Triton X-100 lysate captured on anti-IGF-1R antibody 24-31

[7] = system: ERK 1/2 / p90RSK phosphorylation in L6 IR-A cells; assay: Western blot time-course, MAPK pathway, L6 IR-A; format: cell-based, rat cells; human IR-A; conditions: 10 nM, then reducing between t = 10 – 30 min
Experimental: (§2) R/^-IR-B (80,000 cells/well) or L6 IR-A cells (240,000 cells/well) were seeded in 6-well plates and allowed to grow to confluence (~ 48 hours). Prior to stimulation, cells were serum starved in SFM/1% BSA for 4 h. […] Lysates were scraped from the well, spun at 13,000 rpm for 3 min at 0°C to remove cell debris and stored at -80°C. Lysate protein concentrations were quantified using Bio-Rad DC™ Protein Assay and 20μg of each sample was separated in 10% glycine gels under reducing conditions. Transferred blots were blocked for 1 h at room temperature in TBST containing 3% BSA and probed with primary antibodies (Pathscan Antibody, pAkt(Thr308), pGSK(Ser9), pAS160(Thr642)) in blocking solution (TBST containing 3% BSA) overnight at 4°C. All blots were also probed with anti-β-tubulin as a loading control. Blots were washed six times for 5 min each in TBST then probed with either HRP-conjugated (dose-response) or fluorophore-conjugated (time-course) secondary antibodies for 1 hour at room temperature. The washing was then repeated.
(§3) Dose response blots were developed in ECL reagent according to manufacturer’s instruction and imaged in Fujiflim LAS-4000 Luminescent Image Analyzer. Time course blots were imaged with an Odyssey® CLx Imaging System. All blots were performed at least three times. All data were analysed with LI-COR Image Studio™ software and each band intensity was normalized to tubulin of its respective lane.

[8] = system: Akt / GSK-3β / S6 phosphorylation in L6 IR-A cells; assay: Western blot time-course, PI3K/Akt pathway, L6 IR-A; format: cell-based, rat cells; human IR-A; conditions: 10 nM; for time to optimal phosphorylation of Akt (Ser473, Thr308) and GSK-3β: maximal up to t = 30 min
Experimental: as §2, §3

[9] = system: IR-A; assay: IR-A receptor internalization; format: cell-based, human; conditions: 10 nM; for IR-A internalization (in words): 2 hours post-stimulation; for IR-A remaining on the cell surface: within 2 h, % of surface/total receptor normalised to SFM t = 0
Experimental: All data are the mean ± S.E.M. n = at least 3 independent experiments. Error bars are shown when greater than the size of the symbols.
(§1) Assays were performed in triplicate in at least three independent experiments.

[10] = system: L6 rat skeletal myoblasts overexpressing human IR-A (L6 IR-A cells); assay: DNA synthesis assay (EdU incorporation); format: cell-based; conditions: 18 h, equipotent within fold stated
Experimental: as §1

[11] = molecular target: T2, IR isoform B (IR-B) (Homo sapiens, UniProt P06213); conditions: compared to insulin; ref [21]–[23], [32]; cited from earlier work
T2 construct: expressed in transfected cells; host or cells: R-IR-B cells (IGF-1R knockout mouse embryonic fibroblasts over-expressing human IR-B); Triton X-100 lysate captured on anti-IR antibody 83-7
T2 sequence (P06213 28-758 limits assumed): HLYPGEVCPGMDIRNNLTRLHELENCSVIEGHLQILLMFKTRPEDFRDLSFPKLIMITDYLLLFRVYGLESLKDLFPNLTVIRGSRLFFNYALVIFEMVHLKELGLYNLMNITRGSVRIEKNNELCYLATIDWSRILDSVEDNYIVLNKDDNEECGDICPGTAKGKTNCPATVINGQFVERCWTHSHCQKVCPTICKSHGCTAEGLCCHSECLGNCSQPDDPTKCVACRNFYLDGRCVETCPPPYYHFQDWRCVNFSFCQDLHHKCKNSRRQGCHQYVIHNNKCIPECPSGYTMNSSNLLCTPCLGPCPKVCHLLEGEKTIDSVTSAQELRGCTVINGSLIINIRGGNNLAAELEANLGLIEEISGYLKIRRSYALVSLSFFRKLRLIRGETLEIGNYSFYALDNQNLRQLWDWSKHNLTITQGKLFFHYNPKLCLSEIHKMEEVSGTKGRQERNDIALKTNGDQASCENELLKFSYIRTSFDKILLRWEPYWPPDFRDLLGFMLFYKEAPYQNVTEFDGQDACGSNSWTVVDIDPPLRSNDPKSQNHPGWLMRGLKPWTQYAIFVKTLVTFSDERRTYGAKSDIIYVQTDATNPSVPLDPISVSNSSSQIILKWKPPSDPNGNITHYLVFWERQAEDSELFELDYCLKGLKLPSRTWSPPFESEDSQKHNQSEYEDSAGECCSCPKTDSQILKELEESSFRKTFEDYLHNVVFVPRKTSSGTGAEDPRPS
T2 sequence (P06213 763-1382 partner limits assumed): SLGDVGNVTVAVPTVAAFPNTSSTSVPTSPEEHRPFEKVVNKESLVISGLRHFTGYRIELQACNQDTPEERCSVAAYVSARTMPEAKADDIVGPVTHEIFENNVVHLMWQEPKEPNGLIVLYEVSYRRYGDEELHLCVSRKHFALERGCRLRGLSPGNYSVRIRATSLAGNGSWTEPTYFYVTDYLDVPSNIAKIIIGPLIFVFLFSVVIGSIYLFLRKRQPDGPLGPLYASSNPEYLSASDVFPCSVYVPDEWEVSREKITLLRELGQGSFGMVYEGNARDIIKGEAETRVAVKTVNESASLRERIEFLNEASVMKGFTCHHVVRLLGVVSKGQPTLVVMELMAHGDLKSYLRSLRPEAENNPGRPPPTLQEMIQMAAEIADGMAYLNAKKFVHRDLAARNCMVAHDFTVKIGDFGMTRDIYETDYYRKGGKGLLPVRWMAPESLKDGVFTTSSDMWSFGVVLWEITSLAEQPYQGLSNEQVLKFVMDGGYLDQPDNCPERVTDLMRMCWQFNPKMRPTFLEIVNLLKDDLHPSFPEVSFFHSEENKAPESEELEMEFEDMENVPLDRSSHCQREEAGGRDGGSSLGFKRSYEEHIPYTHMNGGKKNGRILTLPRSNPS

[12] = system: IR-B; assay: Kinase receptor activation assay (KIRA), IR-B; format: cell-based, human; conditions: 10 min stimulation, Eu-PY20 detection
[13] = molecular target: T1, IGF-1R; assay: Competition binding assay, europium-labelled IGF-I, IGF-1R
Experimental: Results are expressed as a percentage of binding in the absence of competing ligand (%B/B0). […] All data are the mean ± S.E.M. n = at least 3 independent experiments. Error bars are shown when greater than the size of the symbols.
Human IR isoform A, isoform B and IGF-1R were solubilized from R^-IR-A, R^-IR-B and P6 cells, respectively. Briefly, cells were serum starved in serum-free medium (SFM) containing 1% (w/v) BSA for 4 h before lysis in ice-cold lysis buffer (20 mM HEPES, 150 mM NaCl, 1.5mM MgCl2, 10% (v/v) glycerol, 1% (v/v) Triton X-100, 1mM EGTA, and 1 mM phenylmethylsulfonyl fluoride, pH 7.5) for 1 h at 4°C. Lysates were centrifuged for 10 min at 2,200g, and then 100 µL of lysate was added per well to a white Greiner Lumitrac 600 96-well plate (16 h at 4°C) previously coated with anti-IR antibody 83-7 or anti-IGF-1R antibody 24-31 (250 ng/well in bicarbonate buffer, pH 9.2). […] Wells were washed with 20 mM Tris, pH 7.4, 150 mM NaCl (TBS) and 0.1% (v/v) Tween 20 (TBST). Then 100 µl/well DELFIA enhancement solution (PerkinElmer Life Sciences) was added. After 10 min, time-resolved fluorescence was measured using 340-nm excitation and 612-nm emission filters with a BMG Lab Technologies Polarstar fluorometer (Mornington, Australia). Assays were performed in triplicate in at least three independent experiments.

[14] = molecular target: T1, IGF-1R; conditions: % of native insulin; ref [21], [23]; cited from earlier work
[15] = system: insulin receptor isoform A (IR-A); conditions: compared to native insulin; ref [21]; cited from earlier work
[16] = molecular target: T3, IR isoform A (IR-A) (Homo sapiens, UniProt P06213); conditions: compared to insulin; ref [21]–[23], [32]; cited from earlier work
T3 construct: expressed in transfected cells; host or cells: R-IR-A cells (IGF-1R knockout mouse embryonic fibroblasts over-expressing human IR-A); Triton X-100 lysate captured on anti-IR antibody 83-7
T3 sequence (P06213 28-1370 isoform P06213-2 limits assumed): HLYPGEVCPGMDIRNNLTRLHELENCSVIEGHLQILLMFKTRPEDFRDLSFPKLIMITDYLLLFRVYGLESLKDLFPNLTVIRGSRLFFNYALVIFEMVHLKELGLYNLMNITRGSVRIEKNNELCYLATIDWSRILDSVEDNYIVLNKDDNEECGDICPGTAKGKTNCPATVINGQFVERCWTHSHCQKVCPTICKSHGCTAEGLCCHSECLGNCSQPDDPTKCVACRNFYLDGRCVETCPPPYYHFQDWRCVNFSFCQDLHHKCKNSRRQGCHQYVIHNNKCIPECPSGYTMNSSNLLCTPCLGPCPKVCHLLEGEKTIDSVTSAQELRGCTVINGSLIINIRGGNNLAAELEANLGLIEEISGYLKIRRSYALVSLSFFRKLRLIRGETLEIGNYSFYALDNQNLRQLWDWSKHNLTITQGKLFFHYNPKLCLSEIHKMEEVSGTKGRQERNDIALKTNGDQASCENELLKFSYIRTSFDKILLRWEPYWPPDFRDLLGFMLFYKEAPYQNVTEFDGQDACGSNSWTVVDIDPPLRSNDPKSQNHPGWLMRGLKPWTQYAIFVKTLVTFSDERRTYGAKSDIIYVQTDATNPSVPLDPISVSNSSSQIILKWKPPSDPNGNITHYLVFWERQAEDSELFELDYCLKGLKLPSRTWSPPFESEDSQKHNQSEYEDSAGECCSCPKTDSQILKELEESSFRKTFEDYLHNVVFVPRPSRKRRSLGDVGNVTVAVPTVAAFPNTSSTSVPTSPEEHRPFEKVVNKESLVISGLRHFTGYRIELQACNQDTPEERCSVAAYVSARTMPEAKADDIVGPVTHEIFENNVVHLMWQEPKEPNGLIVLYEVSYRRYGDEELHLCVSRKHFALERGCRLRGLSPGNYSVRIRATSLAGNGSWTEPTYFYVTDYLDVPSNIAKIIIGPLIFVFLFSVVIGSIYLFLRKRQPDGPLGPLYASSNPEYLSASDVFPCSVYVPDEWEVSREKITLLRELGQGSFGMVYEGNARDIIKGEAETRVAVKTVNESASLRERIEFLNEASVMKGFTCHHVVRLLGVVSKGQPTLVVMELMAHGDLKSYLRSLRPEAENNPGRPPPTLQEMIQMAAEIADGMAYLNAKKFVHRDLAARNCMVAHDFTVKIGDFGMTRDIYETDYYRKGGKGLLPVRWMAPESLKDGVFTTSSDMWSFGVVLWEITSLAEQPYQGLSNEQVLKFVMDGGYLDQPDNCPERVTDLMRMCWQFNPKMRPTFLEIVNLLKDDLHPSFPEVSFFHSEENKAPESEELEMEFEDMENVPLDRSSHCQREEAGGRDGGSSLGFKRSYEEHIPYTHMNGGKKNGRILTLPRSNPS
T3 sequence (P06213 763-1382 partner limits assumed): as the sequence (P06213 763-1382 partner limits assumed) above

[17] = system: C57BL6 male mice; assay: Insulin tolerance test; format: in vivo, mouse; conditions: 0.75 IU/kg ip, chow fed mice, non-fasting, 2 hours post-treatment

In the case of HisB10Asp insulin [insulin X10], the “mitogenic signalling (in words)” value [1] is listed as “enhanced mitogenic signalling”, the “phosphorylation of IR-A Tyr960, Tyr1146 and Tyr1322 (in words)” value ([2]; compared to insulin, ref [32]) is listed as “increased phosphorylation of IR-A Tyr960, Tyr1146 and Tyr1322 compared to insulin” and the “phosphorylation of the IR (in words)” value ([2]; ref [20]) is listed as “sustained phosphorylation of the IR”. For the same substance, the “IGF-1R binding affinity (in words)” value ([3]; compared to insulin, ref [20], [21]) was “increased binding affinity for the growth-promoting insulin-like growth factor receptor 1 (IGF-1R)”, the “receptor internalization (in words)” value [4] was “increased rate of receptor internalization” and the “rate of dissociation from the IR (in words)” value [5] was “reduced rate of dissociation from the IR compared to insulin”.

For human insulin, the “IGF-1R activation (in words)” value [6] was “equipotent but poorly activated the IGF-1R”, the “time to maximal phosphorylation of ERK1/2 and p90RSK” value [7] was 10 min and the “kinetics of activation of the PI3K/Akt pathway (in words)” value ([8]; 0–30 min, p-Akt Ser473, p-Akt Thr308, p-GSK3β, p-S6) was “essentially the same”. For the same substance, the “time to optimal phosphorylation of Akt (Ser473, Thr308) and GSK-3β” value [8] was no more than 20 s, the “IR-A internalization (in words)” value [9] was “rapidly induced receptor internalization post-stimulation (evident within 10 min)” and the “IR-A remaining on the cell surface” value [9] was 60%.

In the case of insulin glargine, the “DNA synthesis, potency difference from native insulin” value [10] is given as no more than 2 fold, the “mitogenic cell signalling (in words)” value ([1]; compared to native insulin, [23]) is given as “equipotent in promoting mitogenic cell signalling” and the “IR-B binding, literature range” value [11] is given as 50-85%. For the same substance, the “IGF-1R binding affinity (in words)” value ([3]; compared to native insulin, ref [22]) was “binds to the IGF-1R with higher affinity”, the “IR-B activation (in words)” value [12] was “potency similar to native insulin” and the “IGF-1R affinity compared to native insulin” value ([13]; % of native insulin) was 480%. The IC50 ([13]; competition for europium-labelled IGF-I, solubilized receptor from P6 cells, 16 h at 4°C, mean ± S.E.M., n = 3 or more) was 6.71 ± 3.9 nM, the “IGF-1R affinity, literature range” value [14] was 460–650% and the “time to maximal phosphorylation of ERK1/2 and p90RSK” value [7] was 10 min. The “IR-A dissociation kinetics (in words)” value [15] was “dissociation kinetics do not differ from native insulin”, the “IR-A binding, literature range” value [16] was 40-86% and the “time to optimal phosphorylation of Akt (Ser473, Thr308) and GSK-3β” value [8] was no more than 20 s. The “IR-A internalization (in words)” value [9] was “rapidly induced receptor internalization post-stimulation (evident within 10 min)”, the “IR-A remaining on the cell surface” value [9] was 60% and the “blood glucose lowering (in words)” value [17] was “no statistical difference”.
